Measured values: patent US5874412A, “Bis-anthracyclines with high activity against doxorubicin resistant tumors” (priority 1997, dated 1999)
Values joined by “and” are separate entries in the source; they are usually repeats but may differ in a detail not shown here. Identical values can stand only once. “Also recorded” adds a separate entry of the source. Counter-ions that a name gives are not always drawn. Like-named read-outs stand apart in the source and are kept apart here.

What was measured:
MCF-7/VP-16 cells [1] = details: for RI (resistance index) MCF-7/VP16 / MCF-7: human, mcf-7/vp-16 / mcf-7 cells, 4320 min
MCF-7/VP-16 cells [2] = assay: cells; details: Homo sapiens, MCF7, 72 h, read-out: ID50 MCF-7/VP16
KB-3-1 cells = assay: MTT cytotoxicity assay, sensitive KB-3-1 cells; details: Homo sapiens, KB 3-1, read-out: ID50 KB-3-1
KB-V-1 cells [3] = tested on: KB-V-1 cells
[4] = Young et al., 1985; cited from earlier work
KB-V-1 cells [5] = assay: cells; details: Homo sapiens, KB-V1, read-out: ID50 KB-V-1
DNA [6] = details: literature; cited from earlier work
MCF-7 cells = assay: MTT cytotoxicity assay, sensitive MCF-7 cells; assay type: cell-based, human; details: for IC50: Homo sapiens, MCF7, MTT, 72 h, read-out: ID50 MCF-7
herring sperm DNA [7] = assay type: binding
DNA [8] = assay: Viscosity studies (binding mode, relative viscosity of DNA); details: for binding mode from viscosity: in words, slope compared with daunorubicin; for slope of cubed root of the relative viscosity vs bound drug per DNA base pair: linear least squares fits, FIG. 20
Description: FIG. 20. Viscosity studies of WP631-DNA interaction. The cubed root of the relative viscosity (.eta./.eta.0) is shown as a function of the ratio of bound drug per DNA base pair: solid circles, ethidium bromide; open diamonds, daunorubicin; solid diamonds, WP63 1.
The bisanthracyclines may be tested as effective intercalating agents using viscosity assays as described by Suh and Chaires (1995). Such assays are well known to those of skill in the art. In theory, for monointercalation,plots of the cubed root of the relative viscosity ((.eta./.eta.0)^1/3) versus the binding ratio (bound drug/DNA bp) ought to have a slope of 1.0. For bisintercalators, the slope is expected to be twice that observed for monointercalators, an expectation that has been verified for a variety of bisintercalating compounds (Wakelin, 1986). Thus in order to test the effectiveness of a candidate bisintercalator the viscosity of a DNA solution is measured according to assays well known to those of skill in the art (Suh and Chaires, 1995) and compared to the viscosity of a known intercalator such as daunorubicin. If the candidate substance is higher than that of the control monointercalator then the candidate substance is likely to be an effective bisintercalator.
Viscosity Studies. Relative viscosity studies were conducted exactly as described previously (Suh and Chaires, 1995). Data were cast into a plot of (.eta./.eta.0)^1/3 versus ratio of bound drug per DNA base pair, in accord with the theory of Cohen and Eisenberg (1969). Ethidium bromide and daunorubicin were run as controls for these experiments.
WP631 Bisintercalates into DNA. In the absence of high-resolution structural data, hydrodynamic studies, especially viscosity, provide the most reliable means of inferring the binding mode of agents that interact with DNA (Suh and Chaires, 1995). […] The theory of Cohen and Eisenberg (1969) predicts that, for monointercalation,plots of the cubed root of the relative viscosity ((.eta./.eta.0)^1/3) versus the binding ratio (bound drug/DNA bp) ought to have a slope of 1.0.
For bisintercalators, the slope is expected to be twice that observed for monointercalators, an expectation that has been verified for a variety of bisintercalating compounds (Wakelin, 1986). […] The model was constructed using Hyper-Chem software (v. 4.5, Hypercube, Inc.) by using the coordinates of the high-resolution structure reported by Wang et al. (1987) for a 2:1 daunorubicin-DNA complex. The sequence of the hexanucleotide in that study was d(G.CTAG.C)3, where the two equivalent intercalation sites are indicated.

herring sperm DNA [9] = assay: UV melting studies of DNA with drug; binding constant from Tm shift; details: for Kd: BPE buffer
topoisomerase II = details: Hsiang et al., 1989; cited from earlier work
herring sperm DNA [10] = details: cited from earlier work

| SMILES | RI (resistance index) MCF-7/VP16 / MCF-7 (MCF-7/VP-16 cells [1]) | IC50 (MCF-7/VP-16 cells [2]) [µM] | IC50 (KB-3-1 cells) [µM] | cytotoxicity in MDR KB-V1 cells, in words (KB-V-1 cells [3]) | IC50 (KB-V-1 cells [5]) [µM] | preferred DNA binding sites (DNA [6]) | IC50 (MCF-7 cells) [µM] | slope of cubed root of the relative viscosity vs bound drug per DNA base pair (DNA [8]) | potency in MCF-7 cells compared with DOX, in words (MCF-7 cells) | binding mode from viscosity (DNA [8]) | also measured |
| --- | --- | --- | --- | --- | --- | --- | --- | --- | --- | --- | --- |
| COc1cccc2c1C(=O)c1c(O)c3c(c(O)c1C2=O)C[C@@](O)(C(=O)CO)C[C@@H]3O[C@H]1C[C@H](N)[C@H](O)[C@H](C)O1 [DOX, doxorubicin] | 17 | 14.9 ± 0.89 | 3.7 ± 1.3 | inactive | 299 | binds preferentially to CGA or CGT | 0.9 ± 0.47 | – | – | – | DOX resistance index relative to that of WP631 (MCF-7/VP-16 cells [1]): 34 fold; RI (resistance index) KB-V-1 / KB-3-1 (KB-V-1 cells [3]; human, kb-v-1 / kb-3-1 cells): 80.8; adverse systemic effects [4]: acute myelosuppression, cumulative cardiotoxicity, and gastrointestinal toxicity |
| COc1cccc2c1C(=O)c1c(O)c3c(c(O)c1C2=O)C[C@@](O)(C(C)=O)C[C@@H]3O[C@H]1C[C@H](NCc2ccc(CN[C@H]3C[C@H](O[C@H]4C[C@](O)(C(C)=O)Cc5c(O)c6c(c(O)c54)C(=O)c4c(OC)cccc4C6=O)O[C@@H](C)[C@H]3O)cc2)[C@H](O)[C@H](C)O1 [WP631, α,α'-Bis-[3'-N-(daunorubicin)]-p-xylene hydrochloride] | 0.5 | 2.5 ± 3.4 | – | – | – | – | 4.83 ± 2.5 | 1.58±0.08 | less potent than DOX | – | cytotoxicity in MCF-7/VP-16 cells compared with DOX, in words (MCF-7/VP-16 cells [1]): dramatic increase in cytotoxicity; binding entropy ΔS (herring sperm DNA [7]): -51 cal mol^-1 K^-1; binding free energy ΔG^0 (herring sperm DNA [7]): -15.3 kcal/mol; entropic contribution TΔS (herring sperm DNA [7]): -14.9 kcal/mol; enthalpy of melting of DNA-WP631 complex ΔH2 (herring sperm DNA [7]; DSC, BPE buffer, saturating amounts of WP631): 11.4 ± 1.0 kcal/mol; binding enthalpy ΔHb (herring sperm DNA [7]; hydrochloride): -30.2 ± 2.6 kcal/mol and -30.2 kcal/mol; binding mode from viscosity (DNA [8]; hydrochloride): binds to DNA by bisintercalation; also recorded: nearly double that observed for daunorubicin; Tm of herring sperm DNA in presence of drug (herring sperm DNA [9]; 10 μM WP631, BPE buffer (16 mM total Na+), DNA alone 67.2° C.): 93.5 °C; Kd (herring sperm DNA [9]; at 20° C., ΔHb assumed constant with temperature, read-out: binding constant at 20° C. (van't Hoff) (converted)): 0.0037 nM; Kd (herring sperm DNA [9]; at 93.5° C., assuming n=6 bp, read-out: binding constant K at Tm (converted)): 114 nM; expected binding constant (square of monomer constant) (herring sperm DNA [9]; expected for bisintercalator, not measured): 10^14 M^-1; DNA affinity compared with polyamides, in words (herring sperm DNA [9]; vs pyrrole-imidazole polyamides (Trauger, 1996)): surpasses that of the polyamides |
| COc1cccc2c1C(=O)c1c(O)c3c(c(O)c1C2=O)C[C@@](O)(C(C)=O)C[C@@H]3O[C@H]1C[C@H](O)[C@H](NCc2ccc(CN[C@@H]3[C@H](C)O[C@@H](O[C@H]4C[C@](O)(C(C)=O)Cc5c(O)c6c(c(O)c54)C(=O)c4c(OC)cccc4C6=O)C[C@@H]3O)cc2)[C@H](C)O1 [WP652, α,α'-Bis-4'-N-(4'-amino-3'-deamino-4'-deoxy-3'-hydroxydaunorubicin)-p-xylene hydrochloride] | – | – | 4.8 ± 0.5 | unusually active against the MDR cells | 7.1 ± 1.2 | – | 3.9 ± 3.3 | – | less potent than DOX | – | – |
| CN(C)CCN1C(=O)c2cccc3cc(N)cc(c23)C1=O [amonafide] | – | – | – | – | – | – | – | – | – | – | inhibition of topoisomerase II (topoisomerase II): inhibit topoisomerase II |
| COc1cccc2c1C(=O)c1c(O)c3c(c(O)c1C2=O)C[C@@](O)(C(C)=O)C[C@@H]3O[C@H]1C[C@H](N)[C@H](O)[C@H](C)O1 [daunorubicin] | – | – | – | – | – | triplet sequences 5'-A/TCG and 5'-A/TGC are preferred binding sites | – | 0.89±0.04 | – | viscosity changes in excellent agreement with the theory | Kd (herring sperm DNA [10]; BPE buffer, at 20° C., read-out: binding constant of daunorubicin (converted)): 0.1 µM and 0.0625 µM; binding enthalpy ΔH (herring sperm DNA [10]; comparable ionic conditions): -10.8 kcal/mol; binding entropy ΔS (herring sperm DNA [10]; comparable ionic conditions): -3 cal mol^-1 K^-1; binding free energy ΔG^0 (herring sperm DNA [10]; comparable ionic conditions): -9.9 kcal/mol |
| CC[n+]1c(-c2ccccc2)c2cc(N)ccc2c2ccc(N)cc21 [ethidium bromide, Ethidium bromide] | – | – | – | – | – | – | – | 0.84±0.02 | – | viscosity changes in excellent agreement with the theory | – |
